What is called IC50 is the midpoint of a concentration-inhibition curve.

Type in all cases: biochemical
One test deals with TRKA kinase (Homo sapiens (Human), UniProt P04629). Briefly: Assay of small molecular compounds for inhibiting the activity of TRKA kinase (LANCE TR-FRET). The protocol: The assay of small molecular compounds for inhibiting the activity of TRKA kinase is based on the LANCE TR-FRET technology of Perkin Elmer Inc., and the assay method is as follows: • 1. […] 2.5 μL of the gradient-diluted compounds were taken with a transfer pipette to a 384-well plate. • 3. Addition of enzyme: 5 μL of 2×TRKA kinase solution (with a concentration of 2 nM) was taken with a transfer pipette to the corresponding reaction well of the 384-well plate, mixed well and pre-reacted at room temperature for 5 minutes. • 4. 2.5 μL 4× Ultra ULight-labeled TK Peptide (with a concentration of 400 nM)/ATP (with a concentration of 40 μM) mixture was taken with a transfer pipette to the corresponding reaction well of the 384-well plate. • 5. Negative control: 2.5 μL/well 4× substrate/ATP mixture and 7.5 μL 1× Kinase Assay Buffer were added to the wells of the 384-well plate.
Chain of TRKA kinase (P04629 33-796): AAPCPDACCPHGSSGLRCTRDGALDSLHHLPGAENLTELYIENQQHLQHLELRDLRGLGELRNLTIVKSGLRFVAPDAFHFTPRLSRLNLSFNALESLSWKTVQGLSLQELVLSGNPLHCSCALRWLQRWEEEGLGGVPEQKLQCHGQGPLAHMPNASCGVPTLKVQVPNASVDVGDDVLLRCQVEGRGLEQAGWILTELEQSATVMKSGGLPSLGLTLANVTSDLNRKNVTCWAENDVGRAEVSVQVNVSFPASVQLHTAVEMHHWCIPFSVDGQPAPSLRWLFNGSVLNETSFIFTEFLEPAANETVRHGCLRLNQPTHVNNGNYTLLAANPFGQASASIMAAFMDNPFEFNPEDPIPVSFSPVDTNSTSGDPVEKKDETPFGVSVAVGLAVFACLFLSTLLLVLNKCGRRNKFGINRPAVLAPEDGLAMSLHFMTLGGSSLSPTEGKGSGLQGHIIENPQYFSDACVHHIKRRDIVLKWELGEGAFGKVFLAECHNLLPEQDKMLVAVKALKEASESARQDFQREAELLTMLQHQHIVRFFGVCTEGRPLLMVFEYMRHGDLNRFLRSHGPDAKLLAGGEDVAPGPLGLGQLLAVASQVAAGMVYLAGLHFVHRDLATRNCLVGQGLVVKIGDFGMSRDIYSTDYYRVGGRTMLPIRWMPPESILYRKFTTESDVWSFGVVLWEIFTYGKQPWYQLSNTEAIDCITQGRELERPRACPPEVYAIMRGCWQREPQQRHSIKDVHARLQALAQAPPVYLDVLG
(§1) Positive control: 2.5 μL/well 4× substrate/ATP mixture, 2.5 μL/well 1× Kinase Assay Buffer containing 4% DMSO, and 5 μL/well 2×TRKA kinase solution were added to the 384-well plate. The final concentration of DMSO in the reaction system was 1%. • 6. The mixture was mixed well and then centrifuged and reacted at room temperature in dark for 60 min. • 7. Termination of the enzymatic reaction: 5 μL of 4× stop solution was taken with a transfer pipette to the wells of the 384-well plate, mixed and then centrifuged, and reacted at room temperature for 5 min. • 8. Development of the reaction: 5 μL of 4× detection solution was taken with a transfer pipette to the wells of the 384-well plate for color development, and the mixture was mixed and then centrifuged and reacted at room temperature for 60 min. • 9. The 384-well plate was placed into the Envision plate reader and the signal was detected using the appropriate program.
On the technique in general: Time-resolved FRET reads energy transfer from a long-lived donor to a nearby acceptor.

The target of a further test is c-MET kinase (Homo sapiens (Human), UniProt P08581). In words: Assay of small molecular compounds for inhibiting the activity of c-MET kinase (LANCE TR-FRET). To be noted: read-out: CMET IC50. As for the experimental part:
The assay is based on the LANCE TR-FRET technology of Perkin Elmer Inc., and the assay method is as follows: • 1. Dilution of compounds: a total of 11 concentrations were obtained using a 3-fold gradient dilution from the highest concentration of 2500 nM (the maximum final concentration of the drug used in this assay was 2500 nM, and the minimum final concentration was 0.042 nM). • 2. 2.5 μL of the gradient-diluted compounds were taken with a transfer pipette to a 384-well plate. • 3. Addition of enzyme: 5 μL of 2×c-MET kinase solution (with a concentration of 2 nM) was taken with a transfer pipette to the corresponding reaction well of the 384-well plate, mixed well and pre-reacted at room temperature for 5 minutes. • 4. 2.5 μL 4× Ultra ULight™-JAK-1 (Tyr1023) Peptide (with a concentration of 400 nM)/ATP (with a concentration of 40 μM) mixture was taken with a transfer pipette to the corresponding reaction well of the 384-well plate. • 5. Negative control: 2.5 μL/well 4× substrate/ATP mixture and 7.5 μL 1× Kinase Assay Buffer were added to the wells of the 384-well plate. • 6. Positive control: 2.5 μL/well 4× substrate/ATP mixture, 2.5 μL/well 1× Kinase Assay Buffer containing 16% DMSO, and 5 μL/well 2× c-MET kinase solution were added to the 384-well plate. The final concentration of DMSO in the reaction system was 4%. • 7. The mixture was mixed well and then centrifuged and reacted at room temperature in dark for 60 min. • 8. Termination of the enzymatic reaction: 5 μL of 4× stop solution was taken with a transfer pipette to the wells of the 384-well plate, mixed and then centrifuged, and reacted at room temperature for 5 min. • 9. Development of the reaction: 5 μL of 4× detection solution was taken with a transfer pipette to the wells of the 384-well plate for color development, and the mixture was mixed and then centrifuged and reacted at room temperature for 60 min. • 10. The 384-well plate was placed into the Envision plate reader and the signal was detected using the appropriate program. • 11. Analysis and processing of the raw data: • 12. The drug concentrations and the corresponding inhibition rates were input into GraphPad Prism5 for calculation, and the inhibition rate of the compounds were calculated as follows: inhibition rate (%)=(reading of positive well−reading of experimental well)/(reading of positive control well−reading of negative control well)×100%. Processing with GraphPad Prism5 software yielded the corresponding IC50 values (the concentration of the compound at which 50% of the highest inhibition of the enzyme is achieved).

The target of another test is MER kinase (Homo sapiens (Human), UniProt Q12866). Briefly: Assay of small molecular compounds for inhibiting the activity of MER kinase (LANCE TR-FRET). The protocol: The assay of small molecular compounds for inhibiting the activity of MER kinase is based on the LANCE TR-FRET technology of Perkin Elmer Inc., and the assay method is as follows: • 1. Dilution of compounds: a total of 11 concentrations were obtained using a 3-fold gradient dilution from the highest concentration of 2500 nM (the maximum final concentration of the drug used in this assay was 2500 nM, and the minimum final concentration was 0.042 nM). • 2. 2.5 μL of the gradient-diluted compounds were taken with a transfer pipette to a 384-well plate. • 3. Addition of enzyme: 5 μL of 2×MER kinase solution (with a concentration of 1 nM) was taken with a transfer pipette to the corresponding reaction well of the 384-well plate, mixed well and pre-reacted at room temperature for 5 minutes. • 4. 2.5 μL 4× ULight-labeled Ploy GT (with a concentration of 200 nM)/ATP (with a concentration of 20 μM) mixture was taken with a transfer pipette to the corresponding reaction well of the 384-well plate. • 5. Negative control: 2.5 μL/well 4× substrate/ATP mixture and 7.5 μL 1× Kinase Assay Buffer were added to the wells of the 384-well plate.
Chain of MER kinase (Q12866 21-999): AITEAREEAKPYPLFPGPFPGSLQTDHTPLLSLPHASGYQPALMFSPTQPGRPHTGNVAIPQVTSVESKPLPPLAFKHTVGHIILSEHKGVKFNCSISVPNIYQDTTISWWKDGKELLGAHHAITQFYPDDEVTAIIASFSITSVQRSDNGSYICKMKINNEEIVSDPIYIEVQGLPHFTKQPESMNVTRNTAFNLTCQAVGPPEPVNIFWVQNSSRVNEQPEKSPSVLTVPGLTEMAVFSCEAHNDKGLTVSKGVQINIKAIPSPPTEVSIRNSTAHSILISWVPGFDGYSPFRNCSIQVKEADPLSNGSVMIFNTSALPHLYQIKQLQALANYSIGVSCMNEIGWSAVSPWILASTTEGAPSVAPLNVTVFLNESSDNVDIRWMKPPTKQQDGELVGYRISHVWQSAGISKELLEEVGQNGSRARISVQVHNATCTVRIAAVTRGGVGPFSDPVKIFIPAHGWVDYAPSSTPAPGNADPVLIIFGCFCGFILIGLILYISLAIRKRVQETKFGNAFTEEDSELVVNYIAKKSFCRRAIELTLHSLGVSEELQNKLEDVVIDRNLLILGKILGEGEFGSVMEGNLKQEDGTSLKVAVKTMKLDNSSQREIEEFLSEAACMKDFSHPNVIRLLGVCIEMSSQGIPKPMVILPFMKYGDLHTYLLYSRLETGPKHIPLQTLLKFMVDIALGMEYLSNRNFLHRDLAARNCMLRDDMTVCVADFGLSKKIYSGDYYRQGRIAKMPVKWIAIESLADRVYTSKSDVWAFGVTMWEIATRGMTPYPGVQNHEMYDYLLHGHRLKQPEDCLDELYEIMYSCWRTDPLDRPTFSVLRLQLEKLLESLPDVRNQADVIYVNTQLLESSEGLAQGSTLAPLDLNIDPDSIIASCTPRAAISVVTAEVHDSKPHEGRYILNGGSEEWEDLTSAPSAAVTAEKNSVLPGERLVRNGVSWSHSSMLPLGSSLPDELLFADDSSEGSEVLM
as §1, with “2×MER” for “2×TRKA”, “program. • 10. Analysis and processing of the raw data:” for “program.”
The drug concentrations and the corresponding inhibition rates were input into GraphPad Prism5 for calculation, and the inhibition rate of the compounds were calculated as follows: inhibition rate (%)=(reading of positive well−reading of experimental well)/(reading of positive control well−reading of negative control well)×100%. Processing with GraphPad Prism5 software yielded the corresponding IC50 values (the concentration of the compound at which 50% of the highest inhibition of the enzyme is achieved).

Chain of c-MET kinase (P08581 25-1390): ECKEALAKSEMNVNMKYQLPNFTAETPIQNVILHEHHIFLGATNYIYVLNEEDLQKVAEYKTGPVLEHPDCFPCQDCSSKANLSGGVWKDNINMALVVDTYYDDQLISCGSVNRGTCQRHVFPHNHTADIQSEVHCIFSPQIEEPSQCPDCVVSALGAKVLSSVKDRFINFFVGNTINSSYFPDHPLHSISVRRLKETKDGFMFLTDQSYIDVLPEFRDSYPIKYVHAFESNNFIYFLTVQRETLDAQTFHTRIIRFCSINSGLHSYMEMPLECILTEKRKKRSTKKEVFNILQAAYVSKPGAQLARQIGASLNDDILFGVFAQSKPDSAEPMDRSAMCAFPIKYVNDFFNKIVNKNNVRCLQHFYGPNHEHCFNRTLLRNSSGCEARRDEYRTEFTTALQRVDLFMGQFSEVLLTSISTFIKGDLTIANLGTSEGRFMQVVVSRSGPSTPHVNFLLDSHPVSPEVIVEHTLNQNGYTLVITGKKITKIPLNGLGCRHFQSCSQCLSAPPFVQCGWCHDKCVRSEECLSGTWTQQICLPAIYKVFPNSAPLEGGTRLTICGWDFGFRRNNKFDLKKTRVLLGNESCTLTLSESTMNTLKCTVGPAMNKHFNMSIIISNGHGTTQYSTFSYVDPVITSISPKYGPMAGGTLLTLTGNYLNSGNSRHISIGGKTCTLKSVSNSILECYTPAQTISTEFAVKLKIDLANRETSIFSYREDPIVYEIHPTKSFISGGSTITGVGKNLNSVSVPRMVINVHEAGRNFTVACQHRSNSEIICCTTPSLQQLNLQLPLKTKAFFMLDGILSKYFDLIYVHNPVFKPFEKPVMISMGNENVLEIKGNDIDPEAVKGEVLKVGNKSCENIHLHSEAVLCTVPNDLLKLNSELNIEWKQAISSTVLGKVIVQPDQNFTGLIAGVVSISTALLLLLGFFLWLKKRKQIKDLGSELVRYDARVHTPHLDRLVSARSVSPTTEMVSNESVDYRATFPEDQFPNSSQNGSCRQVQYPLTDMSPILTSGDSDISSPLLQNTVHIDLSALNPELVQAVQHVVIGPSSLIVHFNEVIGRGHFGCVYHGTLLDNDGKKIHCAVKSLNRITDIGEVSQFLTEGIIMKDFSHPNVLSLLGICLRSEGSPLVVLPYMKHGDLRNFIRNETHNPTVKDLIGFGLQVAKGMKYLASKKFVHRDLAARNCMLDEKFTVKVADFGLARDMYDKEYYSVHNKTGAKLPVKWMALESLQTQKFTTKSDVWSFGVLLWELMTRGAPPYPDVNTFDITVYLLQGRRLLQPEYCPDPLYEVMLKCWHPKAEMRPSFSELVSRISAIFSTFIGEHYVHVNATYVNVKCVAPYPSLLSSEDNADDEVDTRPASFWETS

Take `CC(C)n1cc(C(=O)Nc2ccc(Oc3ccnc4cc(OC5COC5)c5c(c34)OCCO5)c(F)c2)c(=O)n(-c2ccc(F)cc2)c1=O` [Example 89, N-(3-fluoro-4-((5-((oxetan-3-yl)oxy)-2,3-dihydro-[1,4]dioxino[2,3-f]quinolin-10-yl)oxy)phenyl)-3-(4-fluorophenyl)-1-isopropyl-2,4-dioxo-1,2,3,4-tetrahydropyrimidine-5-carboxamide]: the concentration for half-maximal inhibition (IC50) against TRKA kinase was 50 to 500 nM; at c-MET kinase, 50 to 500 nM; on MER kinase, not above 50 nM.

For `COc1cc2nccc(Oc3cc(Cl)c(NC(=O)c4cn(C(C)C)c(=O)n(-c5ccc(F)cc5)c4=O)cc3F)c2c2c1OCCO2` [Example 118, N-(2-chloro-5-fluoro-4-((5-methoxy-2,3-dihydro-[1,4]dioxino[2,3-f]quinolin-10-yl)oxy)phenyl)-3-(4-fluorophenyl)-1-isopropyl-2,4-dioxo-1,2,3,4-tetrahydropyrimidine-5-carboxamide], the half-inhibitory concentration (IC50) at TRKA kinase, at c-MET kinase and against MER kinase was 50 to 500 nM in each case.

Regarding `CC(C)COc1cc2nccc(Oc3ccc(NC(=O)c4cn(C)c(=O)n(-c5ccc(F)cc5)c4=O)cc3F)c2c2c1OCCO2` [Example 83, N-(3-fluoro-4-((5-(isobutoxy)-2,3-dihydro-[1,4]dioxino[2,3-f]quinolin-10-yl)oxy)phenyl)-3-(4-fluorophenyl)-1-methyl-2,4-dioxo-1,2,3,4-tetrahydropyrimidine-5-carboxamide], the IC50 lay within 50 to 500 nM against TRKA kinase, 500 to 5000 nM at c-MET kinase and 50 to 500 nM against MER kinase.

In the case of `COc1cc2nccc(Oc3ccc(NC(=O)c4cn(C(C)C)c(=O)n(C5CCCCC5)c4=O)cc3F)c2c2c1OCCO2` [Example 157, N-(3-fluoro-4-((5-methoxy-2,3-dihydro-[1,4]dioxino[2,3-f]quinolin-10-yl)oxy)phenyl)-3-cyclohexyl-1-isopropyl-2,4-dioxo-1,2,3,4-tetrahydropyrimidine-5-carboxamide], the IC50 fell in the range of 500 to 5000 nM at TRKA kinase and 50 to 500 nM at MER kinase.

In the case of `CCOc1cn(-c2ccc(F)cc2C)nc1C(=O)Nc1ccc(Oc2ncnc3cc(OC)c4c(c23)OCCO4)c(F)c1` [Example 9, 1-(4-fluoro-2-methylphenyl)-N-(3-fluoro-4-((5-methoxy-2,3-dihydro-[1,4]dioxino[2,3-f]quinazolin-10-yl)oxy)phenyl)-4-ethoxy-1H-pyrazole-3-carboxamide], the results for the concentration for half-maximal inhibition (IC50) on c-MET kinase and at MER kinase were 50 to 500 nM and 500 to 5000 nM, respectively.

Regarding `COc1ccn(-c2ccc(F)cc2)c(=O)c1C(=O)Nc1ccc(Oc2ccnc3ccc4c(c23)OCCO4)cc1` [Example 166, N-(4-((2,3-dihydro-[1,4]dioxino[2,3-f]quinolin-10-yl)oxy)phenyl)-4-methoxy-1-(4-fluorophenyl)-2-oxo-1,2-dihydropyridine-3-carboxamide], the IC50 against TRKA kinase and at c-MET kinase was 50 to 500 nM in each case.

In the case of `COc1cc2ncnc(Oc3ccc(NC(=O)c4ccn(-c5ccc(F)cc5C)n4)cc3F)c2c2c1OCCO2` [Example 7, 1-(4-fluoro-2-methylphenyl)-N-(3-fluoro-4-((5-methoxy-2,3-dihydro-[1,4]dioxino[2,3-f]quinazolin-10-yl)oxy)phenyl)-1H-pyrazole-3-carboxamide], the IC50 on c-MET kinase lay in the range of 50 to 500 nM; on MER kinase, 500 to 5000 nM.

Regarding `CCOc1ccn(-c2ccc(F)cc2)c(=O)c1C(=O)Nc1ccc(Oc2ccnc3ccc4c(c23)OCCO4)cc1` [Example 164, N-(4-((2,3-dihydro-[1,4]dioxino[2,3-f]quinolin-10-yl)oxy)phenyl)-4-ethoxy-1-(4-fluorophenyl)-2-oxo-1,2-dihydropyridine-3-carboxamide], the IC50 was 50 to 500 nM against TRKA kinase and not above 50 nM at c-MET kinase.

For the compound `O=C(Nc1ccc(Oc2ccnc3ccc4c(c23)OCCO4)cc1)c1cccn(-c2ccc(F)cc2)c1=O` [Example 165, N-(4-((2,3-dihydro-[1,4]dioxino[2,3-f]quinolin-10-yl)oxy)phenyl)-1-(4-fluorophenyl)-2-oxo-1,2-dihydropyridine-3-carboxamide], the 50% inhibitory concentration (IC50) against TRKA kinase is 50 to 500 nM; on c-MET kinase it was not above 50 nM.

Regarding `COc1ccn(-c2ccc(F)cc2)c(=O)c1C(=O)Nc1ccc(Oc2ccnc3ccc4c(c23)OCCO4)c(F)c1` [Example 167, N-(4-((2,3-dihydro-[1,4]dioxino[2,3-f]quinolin-10-yl)oxy)-3-fluorophenyl)-1-(4-fluorophenyl)-4-methoxy-2-oxo-1,2-dihydropyridine-3-carboxamide], the half-inhibitory concentration (IC50) is 50 to 500 nM on TRKA kinase and not above 50 nM on c-MET kinase.

Turning to `Cc1cc(F)ccc1-n1ccc(C(=O)Nc2ccc(Oc3ncnc4cc(OCCCN5CCOCC5)c5c(c34)OCCO5)c(F)c2)n1` [Example 10, 1-(4-fluoro-2-methylphenyl)-N-(3-fluoro-4-((5-(3-morpholinopropoxy)-2,3-dihydro-[1,4]dioxino[2,3-f]quinazolin-10-yl)oxy)phenyl)-1H-pyrazole-3-carboxamide], the IC50 on c-MET kinase was not above 50 nM; on MER kinase, 50 to 500 nM.

Turning to `COc1cn(-c2ccc(F)cc2C)nc1C(=O)Nc1ccc(Oc2ncnc3cc(OC)c4c(c23)OCCO4)c(F)c1` [Example 8, 1-(4-fluoro-2-methylphenyl)-N-(3-fluoro-4-((5-methoxy-2,3-dihydro-[1,4]dioxino[2,3-f]quinazolin-10-yl)oxy)phenyl)-4-methoxy-1H-pyrazole-3-carboxamide], the IC50 on c-MET kinase is 50 to 500 nM; against MER kinase, 500 to 5000 nM.
